“Also recorded” adds a separate entry of the source. Where two headings read alike, the source gives them in different places.

The subject of test [1] is ER-mitochondria Ca^2+ transfer. The test can be described thus: Oxidative stress (H2O2 / MSC)-induced mitochondrial Ca2+ levels in cerebral cortical neurons. In kind it is cell-based, mouse. The protocol: At this time, to measure mitochondrial Ca^2+ levels at specific time points during incubation of neurons with H2O2, Rhod2/AM, which is a mitochondria-specific chemical Ca^2+ indicator, was used instead of Mito-GCaMP6 capable of causing variations due to different expression levels of Mito-GCaMP6 at multiple time points.

The test system of test [2] is ER-mitochondria Ca^2+ transfer. The test can be described thus: Corticosterone-induced mitochondrial Ca2+ levels in cerebral cortical neurons. In kind it is cell-based, mouse. To be noted: for corticosterone-induced increase in mitochondrial Ca2+ levels: preincubation with the agent. The protocol:
(§1) To verify the hypothesis, changes in ROS and mitochondrial Ca^2+ levels in cerebral cortical neurons were assessed after treatment with corticosterone (CORT), which is a glucocorticoid stress hormone.

In test [3] the test system is cerebral cortical neurons. The test can be described thus: Corticosterone-induced ROS generation in cerebral cortical neurons. The test is classed as cell-based, mouse. The protocol: as §1
The test system of test [4] is cerebral cortical neurons. The test can be described thus: ER Ca2+ storage capacity / IP3 generation after corticosterone. The test is classed as cell-based, mouse. The conditions noted are these: corticosterone for 1 hour. As for the experimental part: To verify the hypothesis, changes in ROS and mitochondrial Ca^2+ levels in cerebral cortical neurons were assessed after treatment with corticosterone (CORT), which is a glucocorticoid stress hormone. […] To determine whether this glucocorticoid-dependent increase in mitochondrial Ca^2+ levels relies on the induction of oxidative stress, apocynin (APO), which is an antioxidant and a ROS scavenger, was used. […] In contrast, it was confirmed that, when neurons were treated with corticosterone for 1 hour, the capacity of the ER for Ca^2+ storage or IP3 generation was not changed.

The test system of test [5] is IP3R1. The test can be described thus: Competitive IP3 binding assay. The conditions noted are these: proteins immunoprecipitated from HEK293FT cells; 3 nM [3H]-IP3, 4° C., 1 hour. The protocol: Transfected HEK293FT cells were lysed in a NP40 buffer, and then the proteins were immunoprecipitated with antibodies. The immunoprecipitated proteins were incubated with 3 nM [^3H]-IP3 at 4° C. for 1 hour and the concentration of cold IP3 was increased in a Ca^2+-free CLM buffer. Meanwhile, brains were isolated from adult WT or DISC1 LI mice and lysed in a NP40 buffer by sonication, and then endogenous IP3R1 and the DISC1 protein were immunoprecipitated with specific antibodies, and then incubated with [^3H]-IP3 in the same manner as described above, and the concentration of cold IP3 was increased. Thereafter, the resulting mixture was filtered with a GF/B filter and washed three times with a CLM buffer, and then the filter was dried, and radioactivity was measured using a scintillation counter.
In IP3R1, the ligand-binding and modulatory domains are critical regions for ligand binding of IP3Rs, and thus the inventors of the present disclosure examined the influence of DISC1 on binding between IP3R1 and its ligand, i.e., IP3. For this, competitive IP3 binding analysis was performed using IP3R1, DISC1, or DISC1^Δ1-201, which was isolated from HEK293FT cells by immunoprecipitation with antibodies according to the methods of Examples 1 to 3.

Test [6] relates to ER-mitochondria Ca^2+ transfer. The test can be described thus: IP3-induced mitochondrial Ca2+ imaging (Mito-GCaMP6) in permeabilized cerebral cortical neurons. The test is classed as cell-based, mouse. The protocol:
Neurons (DIV7-8) transfected with Mito-GCaMP6 along with each construct were permeabilized with digitonin and Ca^2+-free ionomycin at 37° C. for 2 minutes in a modified EGTA- and Ca^2+-free buffer, and then was exposed to IP3. To measure the effect of RiBFM on mitochondrial Ca^2+ responses, neurons were transfected with Mito GCaMP6, AKAP1-FKBP12, and FRB-SAC1 together with pFlag-cmv2 or Flag-DISC1 on DIV5-6, and neurons pre-incubated with rapamycin for 5 minutes were exposed to IP3 in the same manner as described above.
By considering the functional association between IP3R1 and DISC1 at the MAM, which was verified in the above example, the inventors of the present disclosure examined whether or not DISC1 was involved in regulating ER-mitochondria Ca^2+ transfer. For this, expression constructs for GCaMP6, which is a genetically encoded Ca^2+ indicator, were modified by combining the target sequences for mitochondria or the ER. Subsequently, it was confirmed that the organelle-specific GCaMP6 constructs were expressed in cerebral cortical neurons. In the case of ER Ca^2+ measurement, the results were verified using ER-GCaMP3, which has a relatively low affinity for Ca^2+. […]

Test [7] deals with IP3R1. The test can be described thus: Immunoprecipitation analysis of interaction between DISC1 and IP3R1. The test is classed as binding. The text has this: IP3R1 is known to be predominantly expressed in the brain and abundant in the MAM. Therefore, the MAM localization of DISC1 was confirmed through Example 2, and to examine the interaction between DISC1 and IP3R1, the inventors of the present disclosure performed immunoprecipitation analysis on the two proteins. […] In addition, as illustrated in the immunoblotting results of FIG. 2C, it was confirmed that the endogenous DISC1 protein and the IP3R1 protein were expressed together in whole lysates and the crude MAM fraction ((MAM+Mito), which was derived from the brains of adult mice.

[8] abbreviates: treatment with corticosterone for 1 hour.

Consider `OO` [H2O2, Hydrogen peroxide], for which the “mitochondrial Ca2+ levels during incubation with H2O2” value in test [1] (Rhod2/AM, specific time points) was “increased proportional to the incubation time”.
In the case of `NCCOB(c1ccccc1)c1ccccc1` [2-APB, 2-aminoethyl diphenylborinate], the “mitochondrial Ca2+ levels during incubation with H2O2” value in test [1] is given as “these results were not shown”. Further, the “corticosterone-induced increase in mitochondrial Ca2+ levels” value in test [2] is “not observed”.
For `COc1cc(C(C)=O)ccc1O` [APO, apocynin], the “corticosterone-induced mitochondrial Ca2+ levels” value in test [2] (DISC1 shRNA vs CTL shRNA neurons, corticosterone 1 hour) is “significantly reduced”. Also, the “difference in mitochondrial Ca2+ accumulation between WT and DISC1 LI neurons” value in test [2] (corticosterone) is given as “significantly reduced”. For the same molecule, the “corticosterone-induced increase in mitochondrial Ca2+ levels” value in test [2] is on record as “significantly reduced”.
On to `C[C@]12C[C@H](O)[C@H]3[C@@H](CCC4=CC(=O)CC[C@@]43C)[C@@H]1CC[C@@H]2C(=O)CO` [corticosterone], for which, in test [3] (setting [8]), the ROS levels entry is on record as “significant increases”. Moreover, in test [2] (setting [8]), the “mitochondrial Ca2+ levels” value is on record as “significant increases”. Further, in test [4], the “capacity of the ER for Ca2+ storage or IP3 generation” value is on record as “not changed”.

B1: DISC1: disrupted in schizophrenia 1 (DISC1) protein, amino acid sequence of SEQ ID NO: 1 or SEQ ID NO: 2 (protein, UniProt Q9NRI5 1-854, looked up)
Disrupted in schizophrenia 1 …: MPGGGPQGAPAAAGGGGVSHRAGSRDCLPPAACFRRRRLARRPGYMRSSTGPGIGFLSPAVGTLFRFPGGVSGEESHHSESRARQCGLDSRGLLVRSPVSKSAAAPTVTSVRGTSAHFGIQLRGGTRLPDRLSWPCGPGSAGWQQEFAAMDSSETLDASWEAACSDGARRVRAAGSLPSAELSSNSCSPGCGPEVPPTPPGSHSAFTSSFSFIRLSLGSAGERGEAEGCPPSREAESHCQSPQEMGAKAASLDGPHEDPRCLSRPFSLLATRVSADLAQAARNSSRPERDMHSLPDMDPGSSSSLDPSLAGCGGDGSSGSGDAHSWDTLLRKWEPVLRDCLLRNRRQMEVISLRLKLQKLQEDAVENDDYDKAETLQQRLEDLEQEKISLHFQLPSRQPALSSFLGHLAAQVQAALRRGATQQASGDDTHTPLRMEPRLLEPTAQDSLHVSITRRDWLLQEKQQLQKEIEALQARMFVLEAKDQQLRREIEEQEQQLQWQGCDLTPLVGQLSLGQLQEVSKALQDTLASAGQIPFHAEPPETIRSLQERIKSLNLSLKEITTKVCMSEKFCSTLRKKVNDIETQLPALLEAKMHAISGNHFWTAKDLTEEIRSLTSEREGLEGLLSKLLVLSSRNVKKLGSVKEDYNRLRREVEHQETAYETSVKENTMKYMETLKNKLCSCKCPLLGKVWEADLEACRLLIQSLQLQEARGSLSVEDERQMDDLEGAAPPIPPRLHSEDKRKTPLKVLEEWKTHLIPSLHCAGGEQKEESYILSAELGEKCEDIGKKLLYLEDQLHTAIHSHDEDLIQSLRRELQMVKETLQAMILQLQPAKEAGEREAAASCMTAGVHEAQA
For the molecule B1, the “binding ability of unlabeled IP3 relative to [3H]IP3 bound to IP3R1” value in the test on IP3R1 [5] was “decreased”. For the same molecule, the “degree to which mitochondrial Ca2+ levels were increased” value in test [1] (overexpression, 1 hour after H2O2 incubation, compared to control) is “significantly reduced”. Also, the “corticosterone-induced ROS generation” value in test [3] (DISC1 knockdown or overexpression in neurons) is reported as “reduced ROS levels”. Further, the “IP3-induced increase in mitochondrial Ca2+ levels” value in test [6] (overexpression in permeabilized neurons, compared to control (Vector)) is “significantly reduced the increase in mitochondrial Ca^2+ levels; also recorded: decreased”. The “IP3R1 domains that DISC1 interacted with” value in the test on IP3R1 [7] (expression constructs for functional domains of IP3R1) is “a ligand-binding domain (LBD) and modulatory domains (MD1, MD2, and MD3)”. Also, the “interaction with IP3R1 (GFP-IP3R1)” value in the test on IP3R1 [7] (immunoprecipitation) is “strong interaction”.

B2: hDISC1: human DISC1 resistant to shRNA (protein, UniProt Q9NRI5 1-854, looked up)
Disrupted in schizophrenia 1 …: B1 Disrupted in schizophrenia 1 …
modifications: shRNA-resistant silent changes
notes: human DISC1 resistant to shRNA
As to B2, in test [6] (DISC1 expression inhibited, compared to control neurons (CTL shRNA)), the “IP3-dependent increase in mitochondrial Ca2+” value is “restored similarly to the control”.

The record behind these values is patent US20190167761A1, “PHARMACEUTICAL COMPOSITION FOR PREVENTING OR TREATING STRESS-RELATED DISEASE, INCLUDING DISC1 PROTEIN OR GENE ENCODING THE SAME” (POSTECH ACADEMY-INDUSTRY FOUNDATION, priority 2017, published 2019).
